The values that follow come from patent publication US20080004253A1, “Thiazolopyrimidine modulators of TRPV1” (priority 2006, published 2008).

One may read the IC50 as the concentration at which inhibition is half-maximal. The low end stands for greater potency, the high end for weaker potency.

The target of one experiment is T1, human TRPV1 (Homo sapiens, UniProt Q8NER1).
T1 construct: expressed in transfected cells; host or cells: HEK293 (hTRPV1/HEK293), zeocin selection
Put plainly: Functional assay: block of capsaicin-induced Ca2+ influx, human assay (hTRPV1/HEK293, FLIPR). The format is cell-based. The note with it: hTRPV1/HEK293 cells, 150 nM capsaicin challenge, Fluo-3 fluorescence; mean; > value = solubility limit in assay medium. The protocol:
(§1) Functional assay: block of capsaicin-induced Ca^2+ influx
(§2) HEK293 cells were transfected with human TRPV1 cloned in pcDNA3.1zeo(+) using the Effectene non-liposomal lipid based transfection kit (Qiagen) (hTRPV1/HEK293). hTRPV1/HEK293 cells were routinely grown as monolayers under selection in zeocin (200 μg/mL; Invitrogen) in Dulbecco's Modified Eagle Medium (DMEM, Gibco BRL) supplemented with 10% fetal bovine serum, and penicillin/streptomycin (50 units/mL) in 5% CO2 at 37° C. Cells were passaged frequently, every 3-5 days, to avoid overgrowth, depletion of essential medium components, or acidic medium exposure. Cells were passaged using a brief wash in 0.05% trypsin with 1 mM EDTA, followed by dissociation in divalent-free phosphate-buffered saline (Hyclone #SH30028.02). […] The assay buffer was composed of 130 mM NaCl, 2 mM KCl, 2 mM MgCl2, 10 mM HEPES, 5 mM glucose, and either 2 mM or 20 μM CaCl2. On the day of the experiment, the culture medium was replaced with 2 mM calcium assay buffer using an automated plate washer (ELx405; Biotek, VT). […] After loading the cells, the dye solution was replaced with 50 μL/well of 20 μM calcium assay buffer using the ELx405 plate washer. Test compounds (50 μL/well) were added to the plate and incubated for 30 min. […] The IC50 values were determined. […] The contents of the wells were mixed 3 times (40 μL mix volume) immediately after the additions were made. Concentration-dependence of block was determined by exposing each well of cells in duplicate rows of a 96-well plate to a serial dilution of test compound. The concentration series usually started at 10 μM with a three-fold serial decrement in concentration. The magnitude of the capsaicin response was determined by measuring the change in fluo3 fluorescence before and 100 seconds after the addition of the agonist. Data were analyzed using a non-linear regression program (Origin; OriginLab, MA).
(§3) IC50 values shown are the average (mean) of the results obtained. […] Compounds were tested in either the free base or trifluoroacetic acid salt form.

The next experiment deals with T2, rat TRPV1 (Rattus norvegicus, UniProt O35433).
T2 construct: expressed in transfected cells; host or cells: HEK293 (rTRPV1/HEK293), geneticin selection
Put plainly: Functional assay: block of capsaicin-induced Ca2+ influx, rat assay (rTRPV1/HEK293, FLIPR). The format is cell-based. The note with it: rTRPV1/HEK293 cells, capsaicin challenge, Fluo-3 fluorescence; mean; > value = solubility limit in assay medium. Here is the method:
as §1, §2
This assay was performed similarly to the human assay described above, but using HEK293 cells transfected with rat TRPV1 (rTRPV1/HEK293).
as §3

Bounds are passed on as bounds.

T2 sequence (O35433 whole entry): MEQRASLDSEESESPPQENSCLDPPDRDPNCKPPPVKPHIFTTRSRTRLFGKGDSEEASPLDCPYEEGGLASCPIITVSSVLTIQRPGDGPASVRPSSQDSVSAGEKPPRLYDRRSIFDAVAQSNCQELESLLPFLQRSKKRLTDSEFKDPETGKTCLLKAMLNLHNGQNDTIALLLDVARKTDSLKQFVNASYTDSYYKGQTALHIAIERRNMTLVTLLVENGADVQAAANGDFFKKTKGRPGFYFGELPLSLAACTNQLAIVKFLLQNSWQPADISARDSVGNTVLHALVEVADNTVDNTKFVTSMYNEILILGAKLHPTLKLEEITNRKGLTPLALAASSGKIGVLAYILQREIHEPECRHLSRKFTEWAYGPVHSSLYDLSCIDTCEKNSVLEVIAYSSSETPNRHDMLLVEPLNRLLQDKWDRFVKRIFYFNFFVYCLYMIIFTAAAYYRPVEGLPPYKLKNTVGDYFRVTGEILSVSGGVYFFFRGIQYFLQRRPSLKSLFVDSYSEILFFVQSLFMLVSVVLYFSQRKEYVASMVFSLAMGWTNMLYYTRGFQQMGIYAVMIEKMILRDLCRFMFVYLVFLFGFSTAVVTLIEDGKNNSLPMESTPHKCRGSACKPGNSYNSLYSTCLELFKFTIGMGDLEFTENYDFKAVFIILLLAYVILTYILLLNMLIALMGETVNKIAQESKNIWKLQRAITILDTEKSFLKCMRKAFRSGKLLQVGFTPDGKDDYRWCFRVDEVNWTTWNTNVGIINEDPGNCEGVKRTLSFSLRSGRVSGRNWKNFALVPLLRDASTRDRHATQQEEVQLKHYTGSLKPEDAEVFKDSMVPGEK
T1 sequence (Q8NER1 whole entry): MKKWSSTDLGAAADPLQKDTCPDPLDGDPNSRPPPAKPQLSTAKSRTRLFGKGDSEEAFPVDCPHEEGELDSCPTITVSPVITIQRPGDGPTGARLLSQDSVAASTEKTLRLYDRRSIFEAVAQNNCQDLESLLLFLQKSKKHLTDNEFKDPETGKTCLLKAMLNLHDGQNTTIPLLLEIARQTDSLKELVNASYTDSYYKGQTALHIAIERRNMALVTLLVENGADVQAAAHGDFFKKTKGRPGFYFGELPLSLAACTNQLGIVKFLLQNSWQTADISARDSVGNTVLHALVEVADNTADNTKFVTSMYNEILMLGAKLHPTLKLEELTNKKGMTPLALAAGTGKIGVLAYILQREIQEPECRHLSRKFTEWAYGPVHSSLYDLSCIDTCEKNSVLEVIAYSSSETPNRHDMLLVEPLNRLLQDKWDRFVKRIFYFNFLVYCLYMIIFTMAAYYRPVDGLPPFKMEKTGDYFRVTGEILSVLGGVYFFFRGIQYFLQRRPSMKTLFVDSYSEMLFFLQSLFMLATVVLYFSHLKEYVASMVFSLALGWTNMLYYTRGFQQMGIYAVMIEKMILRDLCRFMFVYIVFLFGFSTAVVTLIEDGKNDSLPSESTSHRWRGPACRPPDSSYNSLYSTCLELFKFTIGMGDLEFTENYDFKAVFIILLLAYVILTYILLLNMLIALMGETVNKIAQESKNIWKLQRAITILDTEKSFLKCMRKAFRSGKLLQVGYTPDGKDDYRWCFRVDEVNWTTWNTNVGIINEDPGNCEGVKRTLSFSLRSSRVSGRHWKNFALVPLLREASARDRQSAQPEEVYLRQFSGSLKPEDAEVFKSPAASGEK

Regarding `Cc1nc(Nc2ccc(C(F)(F)F)cc2)c2nc(Nc3c(Cl)cccc3Cl)sc2n1` [Example 5, N^2-(2,6-Dichloro-phenyl)-5-methyl-N^7-(4-trifluoromethyl-phenyl)-thiazolo[5,4-d]pyrimidine-2,7-diamine], the IC50 worked out at 3 nM against human TRPV1 and 2 nM against rat TRPV1.
As for `Cc1nc(Nc2ccc(C(F)(F)F)nc2)c2nc(Nc3c(Cl)cccc3Cl)sc2n1` [Example 6, N^2-(2,6-Dichloro-phenyl)-5-methyl-N^7-(6-trifluoromethyl-pyridin-3-yl)-thiazolo[5,4-d]pyrimidine-2,7-diamine], the IC50 on human TRPV1 was 5 nM; on rat TRPV1, 1 nM.
On to `Cc1nc(Nc2ccc(C(C)(C)C)cc2)c2nc(Nc3c(Cl)cccc3Cl)sc2n1` [Example 7, N^7-(4-tert-Butyl-phenyl)-N^2-(2,6-dichloro-phenyl)-5-methyl-thiazolo[5,4-d]pyrimidine-2,7-diamine], for which the IC50 against human TRPV1 worked out at 5 nM; against rat TRPV1, 1 nM.
In the case of `Cc1nc(N(C)c2ccc(C(F)(F)F)cc2)c2nc(Nc3c(Cl)cccc3Cl)sc2n1` [Example 9, N^2-(2,6-Dichloro-phenyl)-5,N^7-dimethyl-N^7-(4-trifluoromethyl-phenyl)-thiazolo[5,4-d]pyrimidine-2,7-diamine], the 50% inhibitory concentration (IC50) against human TRPV1 and against rat TRPV1 was more than 20000 nM in each case.
Consider `Cc1cccc(C)c1Nc1nc2c(Nc3ccc(C(F)(F)F)cc3)ncnc2s1` [Example 10, N^2-(2,6-Dimethyl-phenyl)-N^7-(4-trifluoromethyl-phenyl)thiazolo[5,4,d]pyrimidine-2,7-diamine], for which the results for the IC50 at human TRPV1 and on rat TRPV1 were 26 nM and 6 nM, respectively.
Consider `Cc1cccc(C)c1Nc1nc2c(Nc3ccc(C(F)(F)F)nc3)ncnc2s1` [Example 11, N^2-(2,6-Dimethyl-phenyl)-N^7-(6-trifluoromethyl-pyridin-3-yl)-thiazolo[5,4-d]pyrimidine-2,7-diamine], for which the IC50 at human TRPV1 is 23 nM; on rat TRPV1, 7 nM.
As to `Cc1cccc(C)c1Nc1nc2c(Nc3ccc(C(C)(C)C)cc3)ncnc2s1` [Example 12, N^7-(4-tert-Butyl-phenyl)-N^2-(2,6-dimethyl-phenyl)-thiazolo[5,4-d]pyrimidine-2,7-diamine], the IC50 against human TRPV1 was 30 nM; against rat TRPV1 it was 4 nM.
The corresponding values for `Cc1cccc(C)c1Nc1nc2c(Nc3ccc(C(F)(F)F)c(Cl)c3)ncnc2s1` [Example 13, N^7-(3-Chloro-4-trifluoromethyl-phenyl)-N^2-(2,6-dimethyl-phenyl)-thiazolo[5,4-d]pyrimidine-2,7-diamine] are 113 nM and 34 nM.
Turning to `Cc1cccc(Cl)c1Nc1nc2c(Nc3ccc(C(F)(F)F)cc3)ncnc2s1` [Example 14, N^2-(2-Chloro-6-methyl-phenyl)-N^7-(4-trifluoromethyl-phenyl)-thiazolo[5,4-d]pyrimidine-2,7-diamine], the IC50 at human TRPV1 stood at 11 nM; on rat TRPV1 it was 1 nM.
In the case of `Cc1cccc(Cl)c1Nc1nc2c(Nc3ccc(C(F)(F)F)nc3)ncnc2s1` [Example 15, N^2-(2-Chloro-6-methyl-phenyl)-N^7-(6-trifluoromethyl-pyridin-3-yl)-thiazolo[5,4-d]pyrimidine-2,7-diamine], the results for the IC50 at human TRPV1 and against rat TRPV1 were 13 nM and 5 nM, respectively.
For the compound `FC(F)(F)c1ccc(Nc2ncnc3sc(Nc4ccccc4Cl)nc23)cc1` [Example 16, N^2-(2-Chloro-phenyl)-N^7-(4-trifluoromethyl-phenyl)-thiazolo[5,4-d]pyrimidine-2,7-diamine], the results for the IC50 on human TRPV1 and against rat TRPV1 were 92 nM and 39 nM, respectively.
Consider `Cc1ccccc1Nc1nc2c(Nc3ccc(C(F)(F)F)cc3)ncnc2s1` [Example 17, N^2-o-Tolyl-N^7-(4-trifluoromethyl-phenyl)-thiazolo[5,4-d]pyrimidine-2,7-diamine], for which the IC50 against human TRPV1 was 70 nM; against rat TRPV1, 19 nM.
With `FC(F)(F)c1ccc(Nc2ncnc3sc(Nc4c(Cl)cccc4C(F)(F)F)nc23)cc1` [Example 18, N^2-(2-Chloro-6-trifluoromethyl-phenyl)-N^7-(4-trifluoromethyl-phenyl)-thiazolo[5,4-d]pyrimidine-2,7-diamine], the IC50 at human TRPV1 stood at 30 nM; against rat TRPV1, 9 nM.
Turning to `FC(F)(F)c1ccc(Nc2ncnc3sc(Nc4c(Cl)cccc4C(F)(F)F)nc23)cn1` [Example 19, N^2-(2-Chloro-6-trifluoromethyl-phenyl)-N^7-(6-trifluoromethyl-pyridin-3-yl)-thiazolo[5,4-d]pyrimidine-2,7-diamine], the IC50 turned out to be 74 nM against human TRPV1 and 31 nM against rat TRPV1.
`FC(F)(F)c1ccc(Nc2ncnc3sc(Nc4ccccc4)nc23)cc1` [Example 20, N^2-Phenyl-N^7-(4-trifluoromethyl-phenyl)-thiazolo[5,4-d]pyrimidine-2,7-diamine]: the IC50 at human TRPV1 was more than 6670 nM; against rat TRPV1, 2680 nM.
For the compound `FC(F)(F)c1ccc(Nc2ncnc3sc(Nc4ccccc4)nc23)cn1` [Example 21, N^2-Phenyl-N^7-(6-trifluoromethyl-pyridin-3-yl)-thiazolo[5,4-d]pyrimidine-2,7-diamine], the results for the half-inhibitory concentration (IC50) at human TRPV1 and against rat TRPV1 were 557 nM and 299 nM, respectively.
Take `FC(F)(F)c1ccc(Nc2nc3c(Nc4ccc(C(F)(F)F)cc4)ncnc3s2)cc1` [Example 22, N^2,N^7-Bis-(4-trifluoromethyl-phenyl)-thiazolo[5,4-d]pyrimidine-2,7-diamine]: the values for the IC50 against human TRPV1 and against rat TRPV1 were more than 6670 nM and 1690 nM, respectively.
For the compound `Cc1nc(Nc2ccc(C(F)(F)F)cc2)c2nc(N(C)c3c(Cl)cccc3Cl)sc2n1` [Example 23, N^2-(2,6-Dichloro-phenyl)-5,N^2-dimethyl-N^7-(4-trifluoromethyl-phenyl)-thiazolo[5,4-d]pyrimidine-2,7-diamine], the IC50 on human TRPV1 stood at 1140 nM; at rat TRPV1, 319 nM.
With `Cc1noc(C)c1Nc1nc2c(Nc3ccc(C(F)(F)F)nc3)ncnc2s1` [Example 24, N^2-(3,5-Dimethyl-isoxazol-4-yl)-N^7-(6-trifluoromethyl-pyridin-3-yl)-thiazolo[5,4-d]pyrimidine-2,7-diamine], the values for the IC50 at human TRPV1 and on rat TRPV1 were 2360 nM and 709 nM, respectively.
`Cc1noc(C)c1Nc1nc2c(Nc3ccc(C(F)(F)F)cc3)ncnc2s1` [Example 25, N^2-(3,5-Dimethyl-isoxazol-4-yl)-N^7-(4-trifluoromethyl-phenyl)-thiazolo[5,4-d]pyrimidine-2,7-diamine]: the IC50 came to 421 nM on human TRPV1 and 68 nM against rat TRPV1.
As for `Cc1nc(Nc2ccc(C(F)(F)F)nc2)c2nc(Nc3c(-c4ccccc4)noc3C)sc2n1` [Example 26, 5-Methyl-N^2-(5-methyl-3-phenyl-isoxazol-4-yl)-N^7-(6-trifluoromethyl-pyridin-3-yl)-thiazolo[5,4-d]pyrimidine-2,7-diamine], the IC50 against human TRPV1 is 208 nM; at rat TRPV1, 55 nM.
The corresponding values for `Cc1nc(Nc2ccc(C(F)(F)F)cc2)c2nc(Nc3c(-c4ccccc4)noc3C)sc2n1` [Example 27, 5-Methyl-N^2-(5-methyl-3-phenyl-isoxazol-4-yl)-N^7-(4-trifluoromethyl-phenyl)-thiazolo[5,4-d]pyrimidine-2,7-diamine] are 91 nM and 25 nM.
With `Cc1cccc(C)c1Nc1nc2c(Nc3ccc(OC(F)(F)F)cc3)ncnc2s1` [Example 28, N^2-(2,6-Dimethyl-phenyl)-N^7-(4-trifluoromethoxy-phenyl)-thiazolo[5,4-d]pyrimidine-2,7-diamine], the IC50 came to 81 nM on human TRPV1 and 39 nM on rat TRPV1.
Take `Cc1cccc(C)c1Nc1nc2c(Nc3ccc(C#N)nc3)ncnc2s1` [Example 29, 5-[2-(2,6-Dimethyl-phenylamino)-thiazolo[5,4-d]pyrimidin-7-ylamino]-pyridine-2-carbonitrile]: the IC50 against human TRPV1 was found to be 207 nM; against rat TRPV1 it was 178 nM.
The corresponding values for `Cc1nc(Nc2ccc(C(F)(F)F)c(Cl)c2)c2nc(Nc3c(Cl)cccc3Cl)sc2n1` [Example 30, N^7-(3-Chloro-4-trifluoromethyl-phenyl)-N^2-(2,6-dichloro-phenyl)-5-methyl-thiazolo[5,4-d]pyrimidine-2,7-diamine] are 3 nM and 3 nM.
Taken in the same sequence, the figures for `Cc1cccc(C)c1Nc1nc2c(Nc3ccc(C#N)cc3)ncnc2s1` [Example 31, 4-[2-(2,6-Dimethyl-phenylamino)-thiazolo[5,4-d]pyrimidin-7-ylamino]-benzonitrile] were 40 nM and 33 nM.
